Source: the NIST ThermoML archive (doi:10.1016/j.tca.2005.06.043)
± gives the expanded uncertainty stated by the source.

What was measured:
[1] = Calculated from knudsen effusion weight loss
[2] = molar enthalpy of vaporization or sublimation; conditions: 303 K; Crystal 2; Static calorimetry

Structure (SMILES)	vapor or sublimation pressure ([1]; 288.36 K, Crystal 2) [kPa]	vapor or sublimation pressure ([1]; 293.31 K, Crystal 2) [kPa]	vapor or sublimation pressure ([1]; 298.28 K, Crystal 2) [kPa]	vapor or sublimation pressure ([1]; 303.22 K, Crystal 2) [kPa]	vapor or sublimation pressure ([1]; 308.19 K, Crystal 2) [kPa]	vapor or sublimation pressure ([1]; 313.16 K, Crystal 1) [kPa]	vapor or sublimation pressure ([1]; 314.21 K, Crystal 1) [kPa]	vapor or sublimation pressure ([1]; 314.65 K, Crystal 1) [kPa]	vapor or sublimation pressure ([1]; 315.63 K, Crystal 1) [kPa]	vapor or sublimation pressure ([1]; 316.65 K, Crystal 1) [kPa]	vapor or sublimation pressure ([1]; 318.12 K, Crystal 1) [kPa]	vapor or sublimation pressure ([1]; 320.59 K, Crystal 1) [kPa]	vapor or sublimation pressure ([1]; 323.03 K, Crystal 1) [kPa]	molar enthalpy [2] [kcal/mol]	vapor or sublimation pressure ([1]; 318.02 K, Crystal) [kPa]	vapor or sublimation pressure ([1]; 322.7 K, Crystal) [kPa]	vapor or sublimation pressure ([1]; 322.99 K, Crystal) [kPa]	vapor or sublimation pressure ([1]; 327.9 K, Crystal) [kPa]	vapor or sublimation pressure ([1]; 332.6 K, Crystal) [kPa]
BrC12CC3CC(CC(C3)C1)C2 [1-bromotricyclo[3.3.1.1(3,7)]decane]	0.001603 ± 0.00015	0.002687 ± 0.00027	0.004279 ± 0.00045	0.006896 ± 0.00077	0.0111 ± 0.0013	0.0169 ± 0.0021	0.01766 ± 0.0022	0.01847 ± 0.0023	0.01952 ± 0.0025	0.0215 ± 0.0028	0.02411 ± 0.0032	0.02925 ± 0.0039	0.03472 ± 0.0048	17.15 ± 0.151	–	–	–	–	–
O=C(O)c1ccccc1 [benzoic acid]	–	–	–	–	–	–	–	–	–	–	–	–	–	–	0.001022 ± 8.9e-05	0.001693 ± 0.00016	0.001744 ± 0.00016	0.00289 ± 0.00029	0.004567 ± 0.00049
